Key:
four MCL cell lines = assay: Cell viability by annexin-V/PI staining and flow cytometry, four lines together; assay type: cell-based, human; details: Jeko-1, Z-138 and UPN-1 cell lines, 24 hours
Method: (§1) FIG. 4. FTY720 sensitizes MCL cell lines and primary patient tumor cells to milatuzumab-mediated cytotoxicity. (A) Four MCL cell lines and primary cells from 6 patients were treated with FTY720 and/or milatuzumab plus cross-linking antibodies at the indicated concentrations. (B) Patient characteristics. (C) Individual patient responses. (D) Representative histograms summarizing patient responses. Cell death was determined by annexin V/PI staining and flow cytometry at 24 hours. Data are shown as the percentage of annexin V−/PI− cells (live cells) and are normalized to untreated controls.
To assess lysosomal volume, FTY720 treated cells were incubated with LYSOTRACKER™ green DND-26. To assess lysosomal membrane permeability, FTY720 treated cells were incubated with acridine orange (MOLECULAR PROBES; INVITROGEN). For analysis of cell viability, MCL cell lines (0.5×10^6/ml) and primary cells (1×10^6/ml) were treated with FTY720, milatuzumab, and the combination of both. […] Cell viability was measured at 24 hours by dual staining with annexin-V FITC and propidium iodide (PI). A total of 10,000 events were collected and analyzed using WinMDI.
The in vitro survival of four MCL cell lines treated with FTY720, milatuzumab in the presence of a cross-linking antibody, and the combination of FTY720 and milatuzumab was determined at 24 hours by annexin-V/PI staining and flow cytometry. […]

[1] = tested on: primary tumor cells from MCL patients; assay: Cell viability by annexin-V/PI staining and flow cytometry; assay type: cell-based, human; details: six MCL patients, 24 hours; FTY720 2.5 μM, immobilized milatuzumab 5 μg/ml
Method: as §1
Primary tumor cells were isolated from the peripheral blood/lymph nodes of patients with MCL. All patients studied were diagnosed with MCL according to the World Health Organization (WHO) classification of tumors (Swerdlow, 2008, World Health Organization Classification of Tumours of Haematopoetic and Lymphoid Tissues (ed 4th ed.) Lyon, France, International Agency on Research for Cancer). All samples contained at least 85% of CD19^+/CD20^+ B cells detected by flow cytometry. […]
To assess lysosomal volume, FTY720 treated cells were incubated with LYSOTRACKER™ green DND-26. […] Cell viability was measured at 24 hours by dual staining with annexin-V FITC and propidium iodide (PI). A total of 10,000 events were collected and analyzed using WinMDI. […]

milatuzumab: fully humanized monoclonal antibody specific for CD74
activity as single agents (four MCL cell lines): only modest activity
average cell death [1]: 50%

— patent US8591892B2, “FTY720 increases CD74 expression and sensitizes cancer cells to anti-CD74 antibody-mediated cell death” (The Ohio State University, priority 2011, dated 2013)
